# Test results: patent US20100068184A1, “LIVING BODY HEALING ACCELERATOR” (AUREO CO., LTD., priority 2006, published 2010)
# Columns and labels:
# [1] = system: leukemia-originated tumor cell P388; assay: Anti-leukemia test (survival rate); format: in vivo, mice; conditions: group A, 5-FU 2.0 mg/kg oral, 40 days after implantation
# Protocol: The test was carried out according to the ordinary method by using mice each with the leukemia-originated tumor cell P388 implanted therein and also by comparing survival rates of the mice after the test samples were administered. Just after the tumor was implanted, each test sample was orally administered by mixing the sample in water in a bottle for drinking water and making the mice freely drink the water. […] 10 mice were used for one test sample group.
# sarcoma = assay: Sarcoma-implanted mice: change in tumor volume; format: in vivo; conditions: 5-FU 20 mg/kg/day oral in drinking water (group A), vs control group
# Protocol: The above result obviously indicates the characteristics of the treatment with an anticancer drug, and in this type of treatment, the anticancer drug can suppress growth of a tumor, but normal cells are damaged by toxicity of the anticancer drug. This negative aspect spoils the positive result of the treatment with an anticancer drug. […] The dose of 2 g/kg/day corresponds to 30 mg/kg/day in administration with respect to the solid content (1.5%).
# [2] = system: mouse carrying diabetes caused by streptozotocin; assay: Test for accelerating normalization of a blood glucose level; format: in vivo, mice; conditions: 200 mg/kg intraperitoneal (positive control group)
# Protocol: The test was performed by using mice, in each of which a diabetes was induced by streptozotocin, and also by comparing blood glucose levels before and after administration of test samples. In Table 3, the “normal group” indicates a blood glucose level in the normal state where treatment with streptozotocin is not performed. On the other hand, the “negative control group” indicates a blood glucose level in a mouse in which diabetes was generated by being subjected to treatment with streptozotocin. The “positive control group” indicates a blood glucose level when tolbutamide which was an accelerator of insulin secretion (200 mg/kg) was administered to a mouse carrying diabetes caused by streptozotocin. The “test A group” and “test B group” each indicates a blood glucose level when each of the Aureobasidium culture solution (2 g/kg and 10 g/kg) was administered to a mouse carrying diabetes caused by streptozotocin. It is to be noted that each sample was intrapenitoreally administered.
# FIG. 6 is plotted with the ordinate axis indicating a blood glucose level and with the abscissa axis indicating treatment performed to each group of the tested mice. A left bar in each group represents an average value of blood glucose levels before administration of the test sample, while a right bar represent an average value of blood glucose levels after administration of the test sample.
Compound,survival rate [1] [%],volume of the tumor (sarcoma),descent percentage of blood glucose level [2] [%]
"O=c1[nH]cc(F)c(=O)[nH]1 [5-FU, 5-fluorouracil]",80,significantly restrained,–
CCCCNC(=O)NS(=O)(=O)c1ccc(C)cc1 [tolbutamide],–,–,17.4
